{"source": "patent US20220081412A1", "about": "“QUINOLINYL-PYRAZINE-CARBOXAMIDE COMPOUNDS AND USES THEREOF” (The Regents of the University of Michigan, priority 2018, published 2022)", "test_system": "NCI60 cell lines", "test": "NCI60 cell line panel", "assay_type": "cell-based, human", "experimental": "The Developmental Therapeutics Program (DTP) of NCI has evaluated more than 100,000 pure compounds and more than 34,000 crude extracts against the panel of human tumor cell lines. The resultant data are analyzed using a program called COMPARE, that rank the entire database of tested compounds in the order of the similarity of the responses. […] Thus, the NCI60 databases is highly useful to the cancer research community. Further experiments were conducted that tested some of the active compounds in a panel of NCI60 cell line to relate our compounds with some known inhibitors to have an idea of possible mechanism of action.\nIn order to understand the selectivity of these compounds in different cancer types, some of them were tested against a panel of 60 cell lines (Table XXXIX)."}
{"smiles": "CCN(CC)CCCC(C)Nc1cnc(C(=O)Nc2cc(C)cc3cccnc23)cn1", "note": "(centres unmarked) [J4, 5-((5-(diethylamino)pentan-2-yl)amino)-N-(6-methylquinolin-8-yl)pyrazine-2-carboxamide]", "values": [{"measurement": "GIPRCNT: % Growth inhibition", "setting": "Breast Cancer, BT-549", "result": 93.26, "unit": "%"}, {"measurement": "GIPRCNT: % Growth inhibition", "setting": "Breast Cancer, HS 578T", "result": 79.89, "unit": "%"}, {"measurement": "GIPRCNT: % Growth inhibition", "setting": "Breast Cancer, MCF7", "result": 57.27, "unit": "%"}, {"measurement": "GIPRCNT: % Growth inhibition", "setting": "Breast Cancer, MDA-MB-231/ATCC", "result": 89.17, "unit": "%"}, {"measurement": "GIPRCNT: % Growth inhibition", "setting": "Breast Cancer, MDA-MB-468", "result": 9.358, "unit": "%"}, {"measurement": "GIPRCNT: % Growth inhibition", "setting": "Breast Cancer, T-47D", "result": 32.641, "unit": "%"}, {"measurement": "GIPRCNT: % Growth inhibition", "setting": "CNS Cancer, SF-268", "result": 66.12, "unit": "%"}, {"measurement": "GIPRCNT: % Growth inhibition", "setting": "CNS Cancer, SF-295", "result": 98.94, "unit": "%"}, {"measurement": "GIPRCNT: % Growth inhibition", "setting": "CNS Cancer, SF-539", "result": 86.87, "unit": "%"}, {"measurement": "GIPRCNT: % Growth inhibition", "setting": "CNS Cancer, SNB-19", "result": 89.24, "unit": "%"}, {"measurement": "GIPRCNT: % Growth inhibition", "setting": "CNS Cancer, SNB-75", "result": 78.26, "unit": "%"}, {"measurement": "GIPRCNT: % Growth inhibition", "setting": "CNS Cancer, U251", "result": 78.39, "unit": "%"}, {"measurement": "GIPRCNT: % Growth inhibition", "setting": "Colon Cancer, COLO 205", "result": 37.0068, "unit": "%"}, {"measurement": "GIPRCNT: % Growth inhibition", "setting": "Colon Cancer, HCC-2998", "result": 89.8, "unit": "%"}, {"measurement": "GIPRCNT: % Growth inhibition", "setting": "Colon Cancer, HCT-15", "result": 59.89, "unit": "%"}, {"measurement": "GIPRCNT: % Growth inhibition", "setting": "Colon Cancer, HCT-116", "result": 18.05, "unit": "%"}, {"measurement": "GIPRCNT: % Growth inhibition", "setting": "Colon Cancer, HT29", "result": 37.31, "unit": "%"}, {"measurement": "GIPRCNT: % Growth inhibition", "setting": "Colon Cancer, KM12", "result": 97.9, "unit": "%"}, {"measurement": "GIPRCNT: % Growth inhibition", "setting": "Colon Cancer, SW-620", "result": 75.26, "unit": "%"}, {"measurement": "GIPRCNT: % Growth inhibition", "setting": "Leukemia, CCRF-CEM", "result": 54.24, "unit": "%"}, {"measurement": "GIPRCNT: % Growth inhibition", "setting": "Leukemia, HL-60(TB)", "result": 76.8, "unit": "%"}, {"measurement": "GIPRCNT: % Growth inhibition", "setting": "Leukemia, K-562", "result": 25.88, "unit": "%"}, {"measurement": "GIPRCNT: % Growth inhibition", "setting": "Leukemia, MOLT-4", "result": 46.46, "unit": "%"}, {"measurement": "GIPRCNT: % Growth inhibition", "setting": "Leukemia, RPMI-8226", "result": 77.97, "unit": "%"}, {"measurement": "GIPRCNT: % Growth inhibition", "setting": "Leukemia, SR", "result": 81.88, "unit": "%"}, {"measurement": "GIPRCNT: % Growth inhibition", "setting": "Melanoma, LOX IMVI", "result": 87, "unit": "%"}, {"measurement": "GIPRCNT: % Growth inhibition", "setting": "Melanoma, M14", "result": 98.61, "unit": "%"}, {"measurement": "GIPRCNT: % Growth inhibition", "setting": "Melanoma, MALME-3M", "result": 107.0521, "unit": "%"}, {"measurement": "GIPRCNT: % Growth inhibition", "setting": "Melanoma, MDA-MB-435", "result": 83.68, "unit": "%"}, {"measurement": "GIPRCNT: % Growth inhibition", "setting": "Melanoma, SK-MEL-2", "result": 104.3875, "unit": "%"}, {"measurement": "GIPRCNT: % Growth inhibition", "setting": "Melanoma, SK-MEL-5", "result": 83.12, "unit": "%"}, {"measurement": "GIPRCNT: % Growth inhibition", "setting": "Melanoma, UACC-62", "result": 98.62, "unit": "%"}, {"measurement": "GIPRCNT: % Growth inhibition", "setting": "Melanoma, UACC-257", "result": 71.75, "unit": "%"}, {"measurement": "GIPRCNT: % Growth inhibition", "setting": "Non-Small Cell Lung Cancer, A549/ATCC", "result": 72.8, "unit": "%"}, {"measurement": "GIPRCNT: % Growth inhibition", "setting": "Non-Small Cell Lung Cancer, EKVX", "result": 77.77, "unit": "%"}, {"measurement": "GIPRCNT: % Growth inhibition", "setting": "Non-Small Cell Lung Cancer, HOP-62", "result": 91.15, "unit": "%"}, {"measurement": "GIPRCNT: % Growth inhibition", "setting": "Non-Small Cell Lung Cancer, HOP-92", "result": 51.4, "unit": "%"}, {"measurement": "GIPRCNT: % Growth inhibition", "setting": "Non-Small Cell Lung Cancer, NCI-H23", "result": 96.3, "unit": "%"}, {"measurement": "GIPRCNT: % Growth inhibition", "setting": "Non-Small Cell Lung Cancer, NCI-H226", "result": 60.39, "unit": "%"}, {"measurement": "GIPRCNT: % Growth inhibition", "setting": "Non-Small Cell Lung Cancer, NCI-H322M", "result": 84.18, "unit": "%"}, {"measurement": "GIPRCNT: % Growth inhibition", "setting": "Non-Small Cell Lung Cancer, NCI-H460", "result": 79.5, "unit": "%"}, {"measurement": "GIPRCNT: % Growth inhibition", "setting": "Non-Small Cell Lung Cancer, NCI-H522", "result": 96.8365, "unit": "%"}, {"measurement": "GIPRCNT: % Growth inhibition", "setting": "Ovarian Cancer, IGROV1", "result": 68.68, "unit": "%"}, {"measurement": "GIPRCNT: % Growth inhibition", "setting": "Ovarian Cancer, NCI/ADR-RES", "result": 92.67, "unit": "%"}, {"measurement": "GIPRCNT: % Growth inhibition", "setting": "Ovarian Cancer, OVCAR-3", "result": 20.46, "unit": "%"}, {"measurement": "GIPRCNT: % Growth inhibition", "setting": "Ovarian Cancer, OVCAR-4", "result": 58.85, "unit": "%"}, {"measurement": "GIPRCNT: % Growth inhibition", "setting": "Ovarian Cancer, OVCAR-5", "result": 97.58, "unit": "%"}, {"measurement": "GIPRCNT: % Growth inhibition", "setting": "Ovarian Cancer, OVCAR-8", "result": 86.9118, "unit": "%"}, {"measurement": "GIPRCNT: % Growth inhibition", "setting": "Ovarian Cancer, SK-OV-3", "result": 103.7568, "unit": "%"}, {"measurement": "GIPRCNT: % Growth inhibition", "setting": "Prostate Cancer, DU-145", "result": 80.68, "unit": "%"}, {"measurement": "GIPRCNT: % Growth inhibition", "setting": "Prostate Cancer, PC-3", "result": 83.08, "unit": "%"}, {"measurement": "GIPRCNT: % Growth inhibition", "setting": "Renal Cancer, 786-0", "result": 88.22, "unit": "%"}, {"measurement": "GIPRCNT: % Growth inhibition", "setting": "Renal Cancer, A498", "result": 70.33, "unit": "%"}, {"measurement": "GIPRCNT: % Growth inhibition", "setting": "Renal Cancer, ACHN", "result": 77.87, "unit": "%"}, {"measurement": "GIPRCNT: % Growth inhibition", "setting": "Renal Cancer, CAKI-1", "result": 93.45, "unit": "%"}, {"measurement": "GIPRCNT: % Growth inhibition", "setting": "Renal Cancer, RXF 393", "result": 72.29, "unit": "%"}, {"measurement": "GIPRCNT: % Growth inhibition", "setting": "Renal Cancer, SN12C", "result": 77.92, "unit": "%"}, {"measurement": "GIPRCNT: % Growth inhibition", "setting": "Renal Cancer, TK-10", "result": 86.86, "unit": "%"}, {"measurement": "GIPRCNT: % Growth inhibition", "setting": "Renal Cancer, UO-31", "result": 63.33, "unit": "%"}]}
